These results are taken from patent US20220142955A1, “METHODS OF TREATING ORGANIC ACIDEMIAS” (HemoShear Therapeutics, Inc., priority 2019, published 2022).

Like-named read-outs stand apart in the source and are kept apart here.

Assay [1] deals with primary hepatocytes of propionic acidemia patients. Nature of the assay: Reduction of propionyl-CoA with compounds 8 and 9 (Example 9). The class given is cell-based, human. The settings on record: PA hepatocytes; 13C-isoleucine (3 mM). As for the experimental part:
(§1) Primary hepatocytes isolated from livers of propionic acidemia patients are treated with increasing doses of compound 1 (0, 0.1, 0.3, 1, 3, 10, 30, 100 μM) for 30 minutes. After 30 minutes, the cells are challenged with ^13C-isoleucine (3 mM) for 60 minutes. At the end of the challenge period, media is removed and the cells are lysed with 70% MeCN and 0.1% TFA containing 100 μM of ethymalonyl-CoA as an internal standard and harvested. Cell lysates are processed for HTMS/MS analysis.

Assay [2] shares this test system. In words: Reduction of 13C-propionyl-CoA and accumulation of compound-CoA ester after 13C-isoleucine challenge (Example 1). The class given is cell-based. To be noted: Homo sapiens, Hepatocyte, 13C-labeled isoleucine, compound 0 μM to 1,000 μM. As for the experimental part: Primary hepatocytes are isolated from explanted livers of propionic acidemia patients and are cultured on day 1 using standard protocols (see: Chapman et al. “Recapitulation of metabolic defects in a model of propionic acidemia using patient-derived primary hepatocytes” Mol. Genet. Metab. 2016, 117(3), 355-362). Approximately 2×10^5 hepatocytes are plated into each well of a collagen-coated 48-well tissue culture plate and pre-conditioned in a custom Modified Corning culture media for Hepatocells (Corning) without low levels of branched chain amino acids for 72 hours. On day 4, hepatocytes are treated with increasing doses of compound (0, 1, 3, 10, 30, 100, 300, 1000 μM) for 30 min. After 30 min the cells are challenged with ^13C-isoleucine (3 mM). At the end of the challenge period, cells are lysed in 100 μL of […] acetonitrile (MeCN) and 0.1% trifluoroacetic acid (TFA) containing 100 μM of ethymalonyl-CoA as an internal standard. Cells are removed from the well by scraping into the lysis buffer. The collected cellular samples are then dispensed into a microfuge tube. The plate wells are washed again with lysis buffer to ensure the remaining cells are dislocated from the well. All remaining collected cells are then moved into the centrifuge tube. The cellular samples are flash frozen in liquid nitrogen and stored at −80° C. To begin processing, the frozen cellular lysates are thawed on ice and vortexed. The samples are centrifuged at 20,000 g for 10 min at 4° C. and the total volume of supernatant is transferred to a no-bind 96-well plate on ice. The samples are dried under vacuum for about 2 hours and then resuspended in 150 μL of water in each well. Total volumes of samples are filtered through a prepared Durapore filter plate into a no-bind 96-well plate. The filtered samples are stored at −80° C. for HTMS/MS analysis.

The test system is the same in assay [3]. Nature of the assay: Propionyl-CoA from various sources in PA primary hepatocytes (Examples 2, 3). The class given is cell-based, human. To be noted: for EC50: Homo sapiens, Hepatocyte, read-out: concentration of propionyl-CoA EC50. The method, then:
as §1, with “(0,” for “(0, 0.1, 0.3,”, “30, 100, 300, 1000” for “30, 100”, “30 min.” for “30 minutes.”, “30 min” for “30 minutes,”, “with the different sources of P-CoA, which may include ^13C-ketoisovaleric acid (KIVA) (1 mM), […] (ILE)” for “with ^13C-isoleucine”, “(3 mM), ^13C-threonine (THR) (5 mM), ^13C-methionine (MET) (5 mM), ^13C-heptanoate (100 μM), or ^13C-propionate (5” for “(3”
Primary hepatocytes isolated from livers of propionic acidemia patients are treated with increasing doses of compound 5 (0, 0.1, 0.3, 1, 3, 10, 30, 100 μM) for 30 minutes. After 30 minutes the cells are challenged with the different sources of P-CoA, which may include ^13C-KIVA (1 mM), ^13C-isoleucine (3 mM), ^13C-threonine (5 mM), ^13C-methionine (5 mM), ^13C-heptanoate (100 μM), or ^13C-propionate (5 mM) for 60 minutes. At the end of the challenge period, media is removed and the cells are lysed with 70% MeCN and 0.1% TFA containing 100 μM of ethymalonyl-CoA as an internal standard and harvested. Cell lysates are processed for HTMS/MS analysis.

In assay [4] the test system is primary hepatocytes of methylmalonic acidemia patients. Nature of the assay: Propionyl-CoA and methylmalonyl-CoA from various sources in MMA primary hepatocytes (Examples 4, 5). The class given is cell-based, human. To be noted: for EC50: Homo sapiens, Hepatocyte. As for the experimental part:
Primary hepatocytes isolated from livers of methylmalonic acidemia patients are treated with increasing doses of compound 1 (0, 1, 3, 10, 30, 100, 300, 1000 μM) for 30 minutes. […] At the end of the challenge period, media is removed and the cells are lysed with 70% MCCN and 0.1% TFA containing 100 μM of ethymalonyl-CoA as an internal standard and harvested. Cell lysates are processed for HTMS/MS analysis.
Primary hepatocytes isolated from livers of methylmalonic acidemia patients are treated with increasing doses of compound 5 (0, 0.1, 0.3, 1, 3, 10, 30, 100 μM) for 30 min. […] At the end of the challenge period, media is removed and the cells are lysed with 70% MeCN and 0.1% TFA containing 100 μM of ethymalonyl-CoA as an internal standard and harvested. Cell lysates are processed for HTMS/MS analysis.

Assay [5] relates to primary hepatocytes of propionic acidemia patients. Nature of the assay: Propionyl-carnitine (C3) in PA primary hepatocytes (Example 6). The class given is cell-based, human. To be noted: for EC50: Homo sapiens, Hepatocyte, read-out: concentration of propionyl-carnitine EC50. As for the experimental part: Primary hepatocytes isolated from livers of propionic acidemia patients are treated with increasing doses of compound 1 (0, 1, 3, 10, 30, 100, 300, 1000 μM) for 30 min. After 30 min the cells are challenged with ^13C-KIVA (1 mM) and ^13C-isoleucine (3 mM) for 60 minutes. At the end of the challenge period, media is removed and the cells are washed with ice cold PBS. Cells are lysed with 70% MeCN containing 4 nM of hexanoyl-carnitine as an internal standard (lysis buffer), harvested and processed for HTMS/MS analysis.

The mark [6] stands for this setting: read-out: concentration of 12C-Compound-CoA ester EC50.
[7] abbreviates: read-out: concentration of 13C-propionyl-CoA EC50.

On to `CC(C)(C)C(=O)O` [Compound 8, 2,2,dimethylpropionic acid], for which the “intracellular propionyl-CoA” value in assay [1] was “dose-dependent reduction”.
In the case of `CCCC(CC)C(=O)O` (centres unmarked) [Compound 2, 2-ethylpentanoic acid], the results for the EC50 in assay [2] (setting [6]) and in assay [2] (setting [7]) were 1.24 µM and 1.23 µM, respectively.
For `CCCC(CCC)C(=O)O` [Compound 1, 2-propylpentanoic acid (valproic acid)], the EC50 was found to be 12.5 µM in assay [2] (setting [6]); 12.4 µM in assay [2] (setting [7]); 48.2 µM in assay [3] (100 μM 13C-heptanoate); 14.2 µM in assay [3] (1 mM 13C-KIVA); 15 µM in assay [3] (3 mM 13C-ILE); 7.14 µM in assay [3] (5 mM 13C-MET). Further, the EC50 in assay [3] (5 mM 13C-THR) is 9.2 µM; in assay [3] (5 mM 13C-propionate), 21.2 µM; in assay [4] (100 μM 13C-propionate, read-out: concentration of methylmalonyl-CoA EC50), 89.4 µM; in assay [4] (100 μM 13C-propionate, read-out: concentration of propionyl-CoA EC50), 68.2 µM; in assay [4] (1 mM 13C-KIVA, read-out: concentration of methylmalonyl-CoA EC50), 31.3 µM; in assay [4] (1 mM 13C-KIVA, read-out: concentration of propionyl-CoA EC50) it was 30.9 µM. Moreover, the EC50 in assay [4] (3 mM 13C-ILE, read-out: concentration of methylmalonyl-CoA EC50) came out at 25.5 µM; in assay [4] (3 mM 13C-ILE, read-out: concentration of propionyl-CoA EC50) it was 30.8 µM; in assay [4] (5 mM 13C-MET, read-out: concentration of methylmalonyl-CoA EC50) it was 47.3 µM; in assay [4] (5 mM 13C-MET, read-out: concentration of propionyl-CoA EC50), 50.7 µM; in assay [4] (5 mM 13C-THR, read-out: concentration of methylmalonyl-CoA EC50) it was 25.6 µM; in assay [4] (5 mM 13C-THR, read-out: concentration of propionyl-CoA EC50), 13.9 µM. In addition, the EC50 in assay [5] (1 mM 13C-KIVA) amounted to 44.3 µM; in assay [5] (3 mM 13C-ILE), 54.3 µM. In addition, the “intracellular propionyl-CoA from all sources investigated” value in assay [3] is recorded as “dose-dependent reduction”. Besides, the “intracellular propionyl-CoA and methylmalonyl-CoA from all sources investigated” value in assay [4] is “dose-dependent reduction”. For the same molecule, the “intracellular propionyl-carnitine (C3) from 13C-KIVA or 13C-isoleucine” value in assay [5] was “dose-dependent reduction”.
As to `CCCC(C)(C)C(=O)O` [Compound 9, 2,2-dimethylpentanoic acid], in assay [1], the “intracellular propionyl-CoA” value was “dose-dependent reduction”.
Take `CC(C)(C)CC(=O)O` [Compound 6, 3,3-dimethylbutanoic acid]: the EC50 in assay [2] (setting [6]) was 0.48 µM; in assay [2] (setting [7]) it was 0.91 µM.
Take `CCCC(C)C(=O)O` (centres unmarked) [Compound 3, 2-methylpentanoic acid]: the EC50 was 27.4 µM in assay [2] (setting [6]) and 13 µM in assay [2] (setting [7]).
Turning to `CCC(CC)C(=O)O` [Compound 4, 2-ethylbutanoic acid], the EC50 in assay [2] (setting [6]) was 10.3 µM; in assay [2] (setting [7]), 32.4 µM.
For `CC1(CC(=O)O)CC1` [Compound 7, 2-(1-methylcyclopropyl) acetic acid], the EC50 in assay [2] (setting [6]) turned out to be 10.2 µM; in assay [2] (setting [7]), 28.8 µM.
